Data on two compounds can be found in patent US20240226175A1, “THERAPEUTIC AGENT USING GENOME-EDITED PLURIPOTENT STEM CELL” (KEIO UNIVERSITY, priority 2020, published 2024).

Common to all, as to format: cell-based, human
One data set has as its system glioma cell line U87. Description: Antitumor effect in co-culture with 5-FC (CCK-8), U87. The following applies: without TSC1/TSC2. The procedure: (§1) Glioma cell line U87 (1×10^4 cells) or glioma stem cell line hG008 (1×10^4 cells) and TSC1 or TSC2 (5×10^3 cells) were co-cultured for 1 day using a low adhesive 96-well culture plate (Prime Surface 96V, manufactured by Sumitomo Bakelite Co., Ltd.), then 5-FC (2 μg/ml) was added, and cell deaths were assessed using a cell proliferation/cytotoxicity assay kit Cell Counting Kit-8 (CCK-8) 5 days later.

For data set [1], the system named is glioma stem cell line hG008. Description: Antitumor effect in co-culture with 5-FC (CCK-8), hG008. Particulars: without TSC1/TSC2. The procedure: as §1
Another data set has as its system (yCD-NSCs). Put plainly: Response of yCD-NSCs to 5-FU. The following applies: ACTB (yCD-NSCs).

Structures are written as SMILES.

Take `Nc1nc(=O)[nH]cc1F` [5-FC, 5-fluorocytosine]: the “tumor cell death with 5-FC alone” value (in the data set with glioma cell line U87; in data set [1]) was “no particular tumor cell death was observed” throughout.
In the case of `O=c1[nH]cc(F)c(=O)[nH]1` [5-FU, 5-fluorouracil], the “response to 5-FU” value in the data set on (yCD-NSCs) is listed as “not favorable”.
